Measured values as given in patent publication US11427533B2, “Crystalline polymorphs of bardoxolone methyl” (PLIVA HRVATSKA d.o.o., priority 2017, dated 2022).
≈ marks a conversion by molar mass, not a printed value. Entries after “also recorded” stand apart in the source; their conditions may differ. Where two headings read alike, the source gives them in different places.

Legend:
[1] = Solubility in aqueous buffers, shaker at 37° C., filtrate by UHPLC; assay type: physicochemical; settings: for Concentration mg/mL (UHPLC) / solubility thermodynamic at 2 h: 150 mg/8 mL suspension; for Solubility compared with crystalline form A / Solubility compared with non-crystalline (amorphous) form B: in words; for solubility thermodynamic at 2 h: 37 °C, thermodynamic from solid, read-out: Concentration mg/mL (UHPLC)
Protocol: UHPLC analyses was performed on Agilent 1290 Infinity LC system with a DAD. UV spectra were recorded at 190-400 nm, with the working wavelength of 240 nm. The column used was Waters Acquity UPLC BEH Phenyl (100 mm×2.1 mm i.d., particle size 1.7 μm), at the column temperature of 50° C. Mobile phases employed for gradient elution were water with 0.1% of formic acid as mobile phase A and acetonitrile with 0.1% of formic acid as mobile phase B. Gradient conditions for the analysis were: isocratic flow from 0.0 to 0.5 min with 40% of mobile phase B; linear gradient from 40% of mobile phase B up to 90% of mobile phase B from 0.5 to 4.0 min; isocratic flow at 90% of mobile phase B from 4.0 to 4.5 min; linear gradient down to 40% of mobile phase B from 4.5 to 5.0 min and finally, reconditioning the column for 0.5 min on starting conditions. 1 μL to 10 μL of sample solution was injected at a flow rate of 0.7 mL min^−1.
Solubility of Bardoxolone methyl form D and the patent forms in U.S. Pat. Nos. 8,309,601 and 8,088,824 were determined in aqueous buffers and water. Suspension of tested substance (150 mg/8 mL) was stirred on a shaker (200 rpm) in a closed vial at 37° C. Suspension was filtered and concentration of Bardoxolone methyl in filtrate was determined by UHPLC. Undissolved residue was analyzed by XRPD.

[2] = as indicated in WO2010093944; cited from earlier work
[3] = Physical stability of Form D (pressure, heating, sauna), form checked by XRPD; assay type: physicochemical; settings: for XRD form after transformation by sauna (closed flask, RT): 1 day; for XRD form after pressure: 1 min
Protocol: Crystalline Form D of Bardoxolone is also stable to conversion after exposure to an atmosphere containing organic solvents, for example ethylene glycol, in a closed vessel at room temperature for 24 hours). Such stability may enable the use of form D in variety of preparation methods including preparation of solid dispersion by spray drying, wet granulation etc.
Sample after being powdered in a mortar and pestle is applied directly on a silicon plate holder. The X-ray powder diffraction pattern was measured with Philips X'Pert PRO X-ray powder diffractometer, equipped with Cu irradiation source=1.54184 Å (Ångström), X'Celerator (2.022° 2θ) detector.
The physical stability of Form D was investigated at different conditions: in heating, under pressure and by sauna.

[4] = buffer pH 1.2 (0.063M HCl + 2.0 g/L NaCl), 2 h at 37° C.
[5] = buffer pH 4.5 (0.05M acetate buffer PhEur), 2 h at 37° C.

Row | SMILES | Concentration mg/mL (UHPLC) [1, 4] | Concentration mg/mL (UHPLC) ([1]; buffer pH 1.2 (0.063M HCl + 2.0 g/L NaCl), 4 h at 37° C.) | Concentration mg/mL (UHPLC) [1, 5] | Oral bioavailability (in words) [2] | Solubility compared with crystalline form A [1] | Solubility compared with non-crystalline (amorphous) form B [1] | Solubility compared with crystalline form A ([1]; listed as form D) | Solubility compared with non-crystalline (amorphous) form B ([1]; listed as form D) | XRD form after heating (open vessel) ([3]; 100° C., 5 min) | XRD form after transformation by sauna (closed flask, RT) ([3]; ethylene glycol) | Polymorphic stability, conversion to other forms (in words) ([3]; pressure 1 t or 2 t 1 min, 100° C. 5 min, water sauna RT 90%-100% RH 24 hours, ethylene glycol atmosphere RT 24 hours) | XRD form after pressure ([3]; pressure 1 t) | XRD form after pressure ([3]; pressure 2 t) | XRD form after transformation by sauna (closed flask, RT) ([3]; water) | solubility thermodynamic at 2 h ([1]; HCl/NaCl buffer, pH 1.2, simulated gastric fluid, buffer pH 1.2 (0.063M HCl + 2.0 g/L NaCl), 2 h at 37° C.) | solubility thermodynamic at 2 h ([1]; acetate buffer, pH 4.5, aqueous buffer, buffer pH 4.5 (0.05M acetate buffer PhEur), 2 h at 37° C.)
1 | COC(=O)[C@]12CCC(C)(C)C[C@H]1[C@H]1C(=O)C=C3[C@]4(C)C=C(C#N)C(=O)C(C)(C)[C@@H]4CC[C@@]3(C)[C@]1(C)CC2 [Form A, Methyl-2-cyano-3,12-dioxooleana-1,9(11)-dien-28-oic acid, reference compound] | LTQL | LTQL | LTQL | relatively low oral bioavailability | – | – | – | – | – | – | – | – | – | – | – | –
2 | COC(=O)[C@]12CCC(C)(C)C[C@H]1[C@H]1C(=O)C=C3[C@]4(C)C=C(C#N)C(=O)C(C)(C)[C@@H]4CC[C@@]3(C)[C@]1(C)CC2 [Form D, Methyl-2-cyano-3,12-dioxooleana-1,9(11)-dien-28-oic acid] | 0.00004 mg/mL | – | 0.00002 mg/mL | – | improved solubility | comparable solubility | higher | comparable | Form D | Form D | maintained; also recorded: resistant to conversion to any other forms | Form D | Form D | Form D | – | –
3 | COC(=O)[C@]12CCC(C)(C)C[C@H]1[C@H]1C(=O)C=C3[C@]4(C)C=C(C#N)C(=O)C(C)(C)[C@@H]4CC[C@@]3(C)[C@]1(C)CC2 [Form B, Methyl-2-cyano-3,12-dioxooleana-1,9(11)-dien-28-oic acid, reference compound] | – | – | – | markedly superior oral bioavailability compared to Form A | – | – | – | – | – | – | – | – | – | – | 0.08 µg/mL | 0.04 µg/mL (≈ 0.0791 µM)
